These results are taken from paper PMC6749524, “Identification of New Antifungal Agents Targeting Chitin Synthesis by a Chemical-Genetic Method” (Molecules, 2019).

For experiment [1], the system named is chitin content in WT yeast cells. In words: Chitin content assay (Morgan–Elson method). The experiment is classed as cell-based, S. cerevisiae. The note with it: 16 hours at 30 °C. The protocol:
The chitin content was assessed by measuring the level of D-glucosamine according to the method described by Morgan–Elson. WT yeast cells were grown to 10^5 CFU/ml in YPD medium and then treated with IMB-D10 (12.5 μg/mL), IMB-F4 (25 μg/mL), or DMSO (0.25%) for 16 hours at 30 °C. Cells were collected by centrifugation at 1500 g for 5 min and then freeze-dried after being washed twice with deionized water. Five-milligram sample was weighted and hydrolyzed by H2SO4 at 100 °C for 4 hours. The hydrolysates were centrifuged at 12,000 rpm for 5 min. We removed 100 μL supernatant to another tube and adjusted pH value to 3 with 2 M KOH; then the volume was set to 1 mL with water. One milliliter acetylacetone (7% acetylacetone in 1 M Na2CO3) was added into the tube and incubated for 25 min at 100 °C. The 1.5 mL Ehrlich^’s reagent and 1.5 mL absolute ethyl alcohol were added into the tube for further incubation for 1 hour at 60 °C. The OD520 was determined with BioMet 3S UV-Visible Spectrophotometer (Thermo Scientific^TM, Waltham, MA, USA). N-acetyl-D-glucosamine was used to establish a standard curve for the quantification of chitin levels. All reactions were performed in triplicate.

The subject of another experiment is chitin in WT yeast cells. Description: CFW staining of chitin, fluorescence microscopy. The note with it: 12.5 or 25 μg/mL, 3 or 5 hours, vs DMSO control. The experiment is classed as cell-based, S. cerevisiae. The protocol: WT S. cerevisiae and C. albicans ATCC10231 were grown to 10^5 CFU/mL in YPD medium and then treated with IMB-D10 (12.5 or 25 μg/mL), IMB-F4 (12.5 or 25 μg/mL), or 0.25% DMSO for 3 and 5 hours at 30 ℃. Cells were collected by centrifugation at 1500 g for 5 min and resuspended in PBS. Some cells were examined using 100 × / 1.25 oil immersion objective (DM2500, Leica) and analyzed by Leica las. Some cells were stained with 100 μg/mL Calcofluor White M2R (CFW, Sigma-Aldrich, St. Louis, MO, USA for 3 min and washed three times with water. Then, the cells were examined under the UV light for fluorescent signals.

A further experiment concerns budding yeast. In words: MIC of CFW in the presence of compounds, checkerboard assay. The experiment is classed as cell-based, S. cerevisiae. The protocol:
(§1) Fresh cell cultures of WT S. cerevisiae and C. albicans ATCC10231 (OD600 = 0.8) were diluted to 10^4 CFU/mL in YPD medium. The in vitro synergistic and antagonistic effects of compounds were determined using checkerboard assay. MIC endpoints were defined as the lowest concentration of drugs, causing 80% decrease in viability compared to the drug-free control (MIC80). The calculation and interpretation of the fractional inhibitory concentration index (FICI) were carried out by referring to the document standards. FICI = (MIC of drug A in combination) / (MIC of drug A alone) + (MIC of drug B in combination) / (MIC of drug B alone). FIC ≤0.5 was considered as a synergistic effect, and >2 was considered as antagonism.

A further experiment deals with C. albicans. The experiment is described as above. The experiment is classed as cell-based, Candida albicans. Here is the method:
as §1

Another experiment deals with Chs1. Description: Chitin synthase activity assay (WGA-coated plate). It counts as biochemical, S. cerevisiae. Conditions: membrane protein from WT yeast. The protocol:
(§2) The inhibitory effect of compounds IMB-D10 and IMB-F4, on the activity of chitin synthases 1, 2, and 3, was measured by the procedure, described previously. In brief, WT yeast cells were grown in YPD medium to OD600 1–2. The cells were sedimented at 1500 g for 15 min at 4 °C and washed once with water. Then, the cells were resuspended in cold 100 mM Tris-HCl (pH 7.5) buffer containing protease inhibitors, and broken by 10 cycles of vortexing with acid-washed glass beads (1 min each). The broken cells were centrifuged for 15 min at 1500g to eliminate cell wall and debris. One volume of supernatant was placed on 2 volumes of 10% w/w sucrose in 100 mM Tris-HCl pH 7.5 and centrifuged at 55,000 g for 2 hours. The pellet was resuspended in 50 mM Tris-HCl pH 7 and used as membrane protein of Chs3. For Chs1 and Chs2, the membrane protein was pretreated with 80 μg/mL trypsin for 30 min at 30 °C.
(§3) To assess the enzyme activity of Chs1, the assay mixture contained 15 μg membrane protein, 5 mM MgCl2, 32 mM Tris-maleate (pH6.5), 0.2% digitonin, 40 mM N-acetyl-glucosamine (GlcNAc), and 4 mM UDP-GlcNAc. For Chs2, the mixture contained 15 μg pretreated membrane protein, 1.6 mM CoCl2, 32 mM Tris-HCl (pH 8), 40 mM GlcNAc, and 4 mM UDP-GlcNAc. For Chs3, the mixture contained pretreated membrane protein 15 μg, 1.6 mM CoCl2, 5 mM NiCl2, 32 mM Tris-HCl (pH 8), 40 mM GlcNAc, and 4 mM UDP-GlcNAc. Different concentrations of IMB-D10 and IMB-F4 were added to the mixture, and the reaction without UDP-GlcNAc was used to measure background absorbance. The 96-well plate coated with 50 μg/mL wheat germ agglutinin (WGA) was washed three times with water, and the reaction mixture was added into the wells and incubated at 30 °C for 60 min. The reaction was stopped by 50 mM EDTA, and the plate was emptied and washed with a large volume of water, followed by the addition of 200 μL 0.5 μg/mL WGA-HRP and incubation for 5 min at room temperature. The plate was washed 5 times with running distilled water. Then, the Tetramethylbenzidine (TMB) reagent was added, and the optical density at 600 nm (OD600) was immediately detected with Multilabel Reader (Envision, PE, Pontyclun, UK). All reactions were performed in triplicate.

For the next experiment, the target named is T1, Chs3 (Saccharomyces cerevisiae, UniProt P29465).
T1 construct: The pellet was resuspended in 50 mM Tris-HCl pH 7 and used as membrane protein of Chs3; endogenous in cells; host or cells: S. cerevisiae WT BY4741, crude membrane fraction
In words: Chitin synthase activity assay (WGA-coated plate). The experiment is classed as biochemical, S. cerevisiae. The protocol:
as §2, §3

T1 sequence (P29465 whole entry): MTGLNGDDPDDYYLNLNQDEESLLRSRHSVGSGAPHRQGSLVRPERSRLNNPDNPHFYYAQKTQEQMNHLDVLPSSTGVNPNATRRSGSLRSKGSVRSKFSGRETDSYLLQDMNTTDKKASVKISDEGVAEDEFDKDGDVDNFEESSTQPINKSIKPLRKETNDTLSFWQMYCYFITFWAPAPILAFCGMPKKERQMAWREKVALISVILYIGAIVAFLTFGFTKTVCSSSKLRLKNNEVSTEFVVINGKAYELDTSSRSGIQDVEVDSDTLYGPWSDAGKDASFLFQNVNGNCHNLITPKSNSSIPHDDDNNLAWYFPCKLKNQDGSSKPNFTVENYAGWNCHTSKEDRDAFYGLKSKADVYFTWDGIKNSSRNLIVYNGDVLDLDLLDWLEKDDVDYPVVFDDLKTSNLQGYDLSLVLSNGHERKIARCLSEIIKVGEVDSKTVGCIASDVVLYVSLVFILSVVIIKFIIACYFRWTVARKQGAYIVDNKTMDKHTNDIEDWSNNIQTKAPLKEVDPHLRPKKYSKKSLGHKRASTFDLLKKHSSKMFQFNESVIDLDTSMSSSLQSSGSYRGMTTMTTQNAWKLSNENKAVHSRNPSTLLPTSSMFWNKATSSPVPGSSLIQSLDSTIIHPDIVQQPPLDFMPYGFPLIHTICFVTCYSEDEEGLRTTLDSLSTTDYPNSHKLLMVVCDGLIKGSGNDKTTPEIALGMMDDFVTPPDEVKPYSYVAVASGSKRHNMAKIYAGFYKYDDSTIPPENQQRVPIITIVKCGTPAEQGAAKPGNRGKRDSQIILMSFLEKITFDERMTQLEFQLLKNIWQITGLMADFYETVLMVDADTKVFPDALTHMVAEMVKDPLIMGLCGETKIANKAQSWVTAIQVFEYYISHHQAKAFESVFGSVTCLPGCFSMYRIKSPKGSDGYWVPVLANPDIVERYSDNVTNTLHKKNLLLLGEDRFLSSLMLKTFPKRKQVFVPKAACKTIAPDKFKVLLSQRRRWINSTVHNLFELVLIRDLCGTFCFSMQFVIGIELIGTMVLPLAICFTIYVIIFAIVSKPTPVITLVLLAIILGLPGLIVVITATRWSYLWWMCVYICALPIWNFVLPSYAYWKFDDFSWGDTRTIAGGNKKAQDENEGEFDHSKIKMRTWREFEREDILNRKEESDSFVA

Usually IC50 stands for the concentration needed to halve the response being measured. A high value points to weaker potency. Consider `COc1cc(OC)cc(C(=O)N(CCn2ccnc2)c2nc3ccc(OC)cc3s2)c1` [IMB-F4, N-(2-(1H-imidazol-1-yl)ethyl)-3,5-dimethoxy-N-(6-methoxybenzo[d]thiazol-2-yl)benzamide], for which the “relative chitin content compared to cells treated with DMSO” value was determined as 46.09 ± 8.01% in experiment [1] (12.5 μg/mL) and 27 ± 5.33% in experiment [1] (25 μg/mL). In addition, the “CFW fluorescent signal around the cell wall and at the primary septum” value in the experiment with chitin in WT yeast cells is reported as “weaker fluorescent signal”. The “resistance to CFW” value in the experiment on budding yeast (yeast cells treated with 25 and 50 μg/mL IMB-F4) was “increased resistance to CFW”. In addition, the “resistance of C. albicans to CFW” value with C. albicans (25 and 50 μg/mL IMB-F4) was “increased the resistance”. Also, the “inhibition of Chs1 activity” value in the experiment with Chs1 is “only inhibited the activity of Chs2 and Chs3”. The same compound had a concentration for half-maximal inhibition (IC50) on Chs3 of 6.76 µM.

In the case of “N-(2-(diethylamino) ethyl)-N-(7-hydroxy-4-methoxybenzo[d]thiazol -2-yl)-2-oxo-2H-chromene-3-carboxamide [IMB-D10]”, the figures for the “relative chitin content compared to cells treated with DMSO” value in experiment [1] (12.5 μg/mL) and in experiment [1] (25 μg/mL) were “did not reduce the chitin level significantly” and 47.61 ± 6.79%, respectively. The “CFW fluorescent signal around the cell wall and at the primary septum” value in the experiment with chitin in WT yeast cells is given as “weaker fluorescent signal”. Further, the “increase of the MIC of CFW” value in the experiment on budding yeast (budding yeast, presence of 12.5 μg/mL IMB-D10) is listed as “eight-fold increase”. The “MIC of CFW in the presence of IMB-D10” value in the experiment on C. albicans (C. albicans, IMB-D10 at 50 μg/mL) amounted to 100 µg/mL. The “IC50 Chs1” value in the experiment on Chs1 turned out to be 17.46 ± 3.39 µg/mL. Besides, on Chs3 (membrane protein from WT yeast), the “IC50 Chs3” value was 13.08 ± 2.08 µg/mL.
